Source: patent publication US20210388320A1, “DIFFERENTIATION-INDUCED CELL POPULATION FROM WHICH […] CELLS HAVE BEEN REMOVED, USE OF SAME, AND METHOD FOR PRODUCING SAME” (priority 2014, published 2021)

How the values were obtained:
[1] = system: human iPS cell strain 253G1; test: Microscope observation and crystal violet staining after JQ1 addition (Example 5); type: cell-based; details: 0.2 μM or more of JQ1, 96 hours later
Procedure: (§1) Human iPS cell strain 253G1 was seeded in a 12-well plate (cell density: 20% confluency). Human fibroblasts (NHDF) were seeded in a 12-well plate (cell density: 50% confluency).
(§2) Thereafter, microscope observation was performed 96 hours later, and crystal violet staining was carried out to visualize the cells (FIG. 9).

[2] = system: normal human dermal fibroblasts (NHDF); test: as above; type: cell-based; details: JQ1 up to 10 μM, 96 hours
Procedure: as §1, §2

[3] = system: TRA-1-60 positive cells in iPS-CM derived from human iPS cell strain MYH-GIP4; test: TRA-1-60 positive rate in iPS-CM treated with JQ1 (Example 7); type: cell-based
Procedure: After differentiation of undifferentiated pluripotent stem cells is induced, a cell dissociation reagent, such as Accutase, is applied to about 1×10^5 to 5×10^5 differentiated cells at 37° C. for 5 minutes, and differentiated cells are dissociated and collected by centrifugation. The differentiated cells are suspended in […] of PBS, and an anti-human TRA-1-60 antibody and an isotype control antibody, both of which are fluorescently labeled, are each added. Then, the resultants are each reacted at 4° C. for 20 minutes in a dark place. After the differentiated cells are washed with PBS and collected by centrifugation, they are each suspended in […] of PBS, passed through a cell strainer, and then collected in FACS tubes. In flow cytometry, fluorescent emission is detected by a detector corresponding to labeled fluorescence, and quantified. Fractions stained with the isotype control antibody are defined as negative fractions, whereas fractions with a higher fluorescence intensity are defined as positive fractions. Among fractions stained with the anti-human TRA-1-60 antibody, the ratio belonging to the positive fractions is expressed as a percentage.
iPS-CM derived from human iPS cell strain MYH-GIP4 was seeded in a 12-well plate (cell density: 90% confluency). […] Thereafter, the TRA-1-60 positive rate was quantified 96 hours after addition. […]

[4] = system: human iPS cell strain 253G1; test: Cell proliferation assay (CCK-8 assay) with JQ1 (Example 6); type: cell-based; details: 0.2 μM or more of JQ1, 96 hours later
Procedure: Human iPS cell strain 253G1 was seeded in a 12-well plate (cell density: 20% confluency).
Thereafter, cell proliferation assay was performed 96 hours after addition (FIG. 10).

[5] = system: NHDF; test: Cell proliferation assay (CCK-8 assay) with BV (Example 2); type: cell-based, human; details: 0-50 μg/ml BV, 24-72 hours
Procedure: (§3) In order to clarify how the number of human iPS cells changed with various BV concentrations and BV treatment times, BV was added in vitro to human iPS cells, cell proliferation assay (CCK-8 assay), which reflects the number of cells, was performed, and viable cells were evaluated quantitatively.
Three human iPS cell strains (1231A3, MYH-GIP4, and 253G1) and NHDF were each seeded in a 12-well plate (cell density: 20% confluency). However, the cell density of NHDF was set to 50% confluency.
Forty-eight hours after seeding, 0, 5, 25, and 50 μg/ml of BV was added to each well (the agent-containing medium was exchanged every 24 hours). Thereafter, cell proliferation assay was performed 24 hours, 48 hours, and 72 hours after addition.

[6] = system: human iPS cell strains (253G1, MYH-GIP4, and 201B7); test: Cell proliferation assay (CCK-8 assay) with BV (Example 3); type: cell-based; details: 72 hours after treatment with 50 μg/ml BV, all the human iPS cells
Procedure: as §3
(§4) Three human iPS cell strains (253G1, MYH-GIP4, and 201B7) and NHDF were each seeded in a 12-well plate (cell density: 20% confluency). However, the cell density of NHDF was set to 50% confluency.
(§5) Forty-eight hours after seeding, 0, 0.1, 0.25, 0.5, 1, 2.5, 5,10, 25, and 50 μg/ml of BV was added to each well (the agent-containing medium was exchanged every 24 hours). Thereafter, cell proliferation assay was performed 72 hours after addition.

[7] = system: Human iPS cell strain MYH-GIP4; test: Microscope observation of cell death after BV addition (Example 1); type: cell-based; details: 5 μg/ml BV, 48 to 72 hours later
Procedure: Human iPS cell strain MYH-GIP4 was seeded in a 12-well plate (cell density: 20% confluency). Forty-eight hours after seeding, 0, 0.05, and 5 μg/ml of an anti-CD30 antibody-binding agent (general name: Brentuximab vedotin, abbreviated as “BV”) (trade name: Adcetris (registered trademark)) was added to each well (the agent-containing medium was exchanged every 24 hours). Thereafter, microscope observation was performed every 24 hours. Since Adcetris (registered trademark) contains additives, in addition to BV, numerical values converted from the net weight of BV were described (i.e., “0, 0.05, and 5 μg/ml as BY”).

[8] = system: NHDF; test: Cell proliferation assay (CCK-8 assay) with BV (Example 3); type: cell-based, human; details: 0.1-50 μg/ml BV, 72 hours
Procedure: as §3, §4, §5

[9] = system: Lin28 expression in iPS-CM derived from human iPS cell strain 253G1; test: Lin28 expression by quantitative PCR in iPS-CM treated with BV (Example 4); type: cell-based
Procedure: This method is targeted for human iPS cell-derived cardiomyocytes (iPS-CM). iPS-CM is considered to contain tumorigenic undifferentiated cells, in addition to cardiomyocytes.
The method for inducing differentiation into cardiomyocytes was performed according to the following document: Matsuura K, et al. Creation of human cardiac cell sheets using pluripotent stem cells. Biochem Biophys Res Commun, 2012, and 425(2) pp. 321-7. iPS-CM derived from human iPS cell strain 253G1 was seeded in a 12-well plate (cell density: 90% confluency). Forty-eight hours after seeding, 0, 5, and 10 μg/ml of BV was added to each well (the agent-containing medium was exchanged every 24 hours). Thereafter, mRNA was extracted 72 hours and 96 hours after addition. Lin28 expression levels were quantified by quantitative PCR.

[10] = system: normal human dermal fibroblasts (NHDF); test: Microscope observation of cell death after BV addition, normal fibroblasts (Example 1); type: cell-based; details: 5 μg/ml BV, 72 hours after addition
Procedure: Similarly, in order to examine the influence of BV on normal human dermal fibroblasts (NHDF), the same experiment as in Example 1 was conducted.
Human fibroblasts (NHDF) were seeded in a 12-well plate (cell density: 50% confluency). Forty-eight hours after seeding, 0, 0.05, and 5 μg/ml of BV was added to each well (the agent-containing medium was exchanged every 24 hours). Thereafter, microscope observation was performed every 24 hours.

Compound | cell death (microscope observation, crystal violet staining) [1] | cell death (microscope observation, crystal violet staining) [2] | TRA-1-60 positive rate ([3]; 1 μM JQ1, 96 hours after addition) [%] | TRA-1-60 positive rate ([3]; 5 μM JQ1, 96 hours after addition) [%] | cell proliferation rate [4] [%] | effect of BV on number of cells [5] | cell proliferation [6] [%] | cell death (microscope observation) [7] | effect of BV on cell proliferation [8] | expression of undifferentiated marker Lin28, of the control group (BV: 0 μg/ml) ([9]; 72-hour treatment, BV 5 and 10 μg/ml) | Lin28 expression level, pure human iPS cells regarded as 100% ([9]; 72nd hour, BV-added groups) | induction of cell death (macroscopic observation) [10]
Cc1sc2c(c1C)C(c1ccc(Cl)cc1)=N[C@@H](CC(=O)OC(C)(C)C)c1nnc(C)n1-2 [JQ1] | complete cell death was induced | cell death was not observed | 0.2 | 0.1 | ≤ 10 |  |  |  |  |  |  | 
Brentuximab vedotin [BV] |  |  |  |  |  | hardly affected | ≤ 20 | cell death was partially induced | hardly affected | about 50% | about 0.3% | induction of cell death was not observed macroscopically
